Source: US20050130232A1, “Methods of screening for compounds that modulate hormone receptor activity” (Allergan, Inc., priority 2001, published 2005)
Where no end group is shown, it is not given here. [ ]: non-standard residue; d: D form. hArg = N=C(N)NCCCC[C@H](N)C(=O)O

Experiments:
RAR receptors = conditions: cited from earlier work; for RAR isotype selectivity: in vitro binding assays
RXR receptors = conditions: cited from earlier work
[1] = molecular target: T1, RXR-associated protein kinase in Flag-RXR immunocomplexes (Homo sapiens, UniProt P19793); experiment: In vitro kinase reaction with [γ-32P]ATP on Flag-RXR immunocomplexes from transfected HEK 293 cells; type: cell-based; conditions: transfected HEK 293 cells treated with ligand before anti-Flag immunoprecipitation
T1 construct: expressed in transfected cells; host or cells: HEK 293
T1 sequence (P19793 1-462): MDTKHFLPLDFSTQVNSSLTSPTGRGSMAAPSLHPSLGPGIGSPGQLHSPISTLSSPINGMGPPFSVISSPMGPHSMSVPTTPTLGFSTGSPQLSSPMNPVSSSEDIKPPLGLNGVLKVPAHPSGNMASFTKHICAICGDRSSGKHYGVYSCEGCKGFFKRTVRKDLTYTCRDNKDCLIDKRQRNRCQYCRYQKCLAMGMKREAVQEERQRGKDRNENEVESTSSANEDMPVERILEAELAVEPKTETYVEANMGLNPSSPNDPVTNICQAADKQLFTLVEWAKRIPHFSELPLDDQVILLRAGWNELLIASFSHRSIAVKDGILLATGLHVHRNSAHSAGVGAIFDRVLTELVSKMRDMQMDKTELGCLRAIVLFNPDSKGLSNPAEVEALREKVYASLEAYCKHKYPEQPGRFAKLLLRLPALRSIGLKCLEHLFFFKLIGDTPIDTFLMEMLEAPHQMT
Excerpt: Total cell lysates were immunoprecipitated with anti-Flag antibody (M2). Aliquots of the immunocomplexes were used for the in vitro kinase reaction with [γ-^32P]ATP and separated on SDS-PAGE. Phosphorylated proteins were detected by autoradiography (top panel). Additional aliquots of the immunocomplexes were subjected to immunoblotting with polyclonal anti-RXR antisera (D20; bottom panel). (B) Phosphoamino acid analysis. Flag-RXR and the 160-kDa protein were phosphorylated in vitro and separated on SDS-PAGE as described above, then transferred onto PVDF membrane, detected by autoradiography, and cut out for hydrolysis with acid (6 N HCl). The phosphorylated amino acids and standards (P-Ser, P-Thr, and P-Tyr) were separated by thin-layer chromatography. Positions of the standards P-Ser, P-Thr, and P-Tyr were visualized by ninhydrin staining and are indicated by arrows. (C) In vivo metabolic labeling of transfected HEK 293 cells. […] Cells were washed with phosphate-free medium and starved for 90 minutes before incubation with [^32P]orthophosphate for another 4 hours. […] Total cell lysates were immunoprecipitated with anti-Flag antibody (M2) and subjected to separation on SDS-PAGE. Phosphorylated proteins were detected by autoradiography.
Total cell lysates were subjected to immunoprecipitation, and the in vitro kinase reaction performed as described above.
Cell lysis, immunoprecipitation with anti-Flag (M2), in vitro kinase assay, and detection of the phosphorylated proteins in the RXRα immunoprecipitated complexes were performed as described above.
Cell culture and transient transfection was performed as follows. HEK 293 cells were grown in Dulbecco's modified Eagle's medium (DMEM) supplemented with 10% fetal bovine serum (FBS), 100U of penicillin per ml and 10 μg of streptomycion per ml at 37° C. in 5% CO2. For expression of RXR protein, 100-mm dishes of cells were transfected at 50% confluence with 2 μg of plasmid DNA using Lipofectamine (Life Technologies) as specified by the manufacturer. At 32 hours post-transfection, cells were starved by incubating in DMEM medium with 2.5% charcoal-treated fetal bovine serum or 0.1-0.5% calf bovine serum overnight, and then treated with indicated agents. Cells were harvested by aspirating medium, rinsing in phosphate buffered saline (PBS), and extracting into Lysis Buffer (30 mM Tris-HCL, pH 7.4, 0.5% Nonidet P-40, 10% glycerol, 150 mM NaCl, 1 mM EDTA, 40 mM NaF, 1 mM sodium orthovanadate, and 0.5 mM phenylmethylsufonyl fluoride, and 1× protease inhibitors, (Roche Diagnostics) or 1×SDS Sample Buffer.
Immunoprecipitation was performed essentially as follows. Cells were solubilized in cold Lysis Buffer and subsequently clarified by centrifugation at 20,000 g for 10 minutes at 4° C. Immunoprecipitations were performed at 4° C. by incubating clarified cell extracts with the indicated antibodies (2 μg/ml) and protein A/G-agarose beads (1:30 dilution of a 50% suspension) on a rotating wheel for 4 hours to overnight. Agarose beads were pelleted by low speed centrifugation and washed extensively with ice-cold Lysis Buffer.
Protein kinase assays were performed as follows. Immunoprecipitated complexes were resuspended in 15 μl of Kinase Assay Buffer (30 mM Tris-HCl, pH 7.4 and 10 mM MgCl2). Kinase reactions were initiated by addition of 2.5 μl of 50 μM [γ-^32P]ATP (10 μCi) to the immune-complexes, followed by incubation at 25° C. with occasional shaking for 20 minutes, and terminated by addition of 6 μl 4×SDS Sample Buffer. After heating at 100° C. for 5 minutes, the reaction mixtures were resolved by 4-12% SDS-PAGE. Incorporation of ^32P into RXR or other proteins was determined by autoradiography.

protein kinase A = conditions: selected protein kinase A synthetic substrates; cited from earlier work
[2] = molecular target: Flag-tagged PH-RXRα (Flag tag, pleckstrin homology domain of human insulin receptor substrate-1, human RXRα) (UniProt P35568)

For CC1=C(/C=C/C(C)=C\C=C\C(C)=C\C(=O)O)C(C)(C)CCC1 [9-cis RA, 9-cis-retinoic acid], the “binding to RAR receptors” value (RAR receptors) is listed as “binds to the RAR receptors” and the “binding to RXR receptors” value (RXR receptors) is listed as “RXR receptor ligand”.

With CC1(C)CCC(C)(C)c2cc(C3(c4ccc(C(=O)O)cn4)CC3)ccc21 [AGN195029] the “phosphorylation of RXR and 160 kDa protein in Flag-RXR immunocomplexes” value (shortened to “phosphorylation”) [1] was “contained a kinase phosphorylated RXR and a 160 kDa protein”.

For CC1(C)CCC(C)(C)c2c1cc(C(=O)Nc1cc(F)c(C(=O)O)c(F)c1)c(O)c2Cl [AGN195183], the “phosphorylation” value [1] was “not stimulated”.

In the case of CC[C@]1(c2ccc3c(c2)C(C)(C)CCC3(C)C)C[C@H]1/C=C/C(C)=C/C(=O)O [AGN195184], the “phosphorylation” value [1] was “contained a kinase phosphorylated RXR and a 160 kDa protein”.

In the case of CCC[C@]1(c2ccc3c(c2)C(C)(C)CCC3(C)C)C[C@H]1/C=C/C(C)=C/C(=O)O [AGN195203], the “phosphorylation” value [1] was “contained a kinase phosphorylated RXR and a 160 kDa protein”.

In the case of CCCCCCOc1c(\C(C)=C/C=C/C(C)=C/C(=O)O)cc(C(C)C)cc1C(C)C [AGN195393], the “phosphorylation” value [1] was “neither RXR nor the 160 kDa protein was phosphorylated”.

For CC1(C)CCSc2ccc(C#Cc3ccc(C(=O)O)cn3)cc21 [AGN 190299], the RAR isotype selectivity (RAR receptors) is given as “RARβ/γ selective”.

In the case of CC1=C(/C=C/C(C)=C/C=C/C(C)=C/C(=O)O)C(C)(C)CCC1 [ATRA, All trans-retinoic acid], the “binding to RAR receptors” value (RAR receptors) is listed as “physiological hormone for the RAR receptors” and the “binding to RXR receptors” value (RXR receptors) is listed as “does not bind the RXR receptors”.

For CC1(C)CCC(C)(C)c2cc(NC(=O)c3ccc(C(=O)O)cc3)ccc21 [Am 80], the RAR isotype selectivity (RAR receptors) is listed as “RARα-selective”.

For CC1(C)CCC(C)(C)c2cc(C(=O)Nc3ccc(C(=O)O)cc3)ccc21 [Am 580], the RAR isotype selectivity (RAR receptors) is given as “RARα-selective”.

For Cc1cc2c(cc1C1(c3ccc(C(=O)O)cn3)CC1)C(C)(C)CCC2(C)C [LG 100268], the “binding to RAR receptors” value (RAR receptors) is given as “not to any of the RAR isotypes” and the “binding to RXR receptors” value (RXR receptors) is given as “binding to all three RXRs”.

For CC(C)=C(c1ccc(C(=O)O)cc1)c1ccc2c(c1)C(C)(C)CCC2(C)C [SR 11217], the “binding to RAR receptors” value (RAR receptors) is listed as “not to any of the RAR isotypes” and the “binding to RXR receptors” value (RXR receptors) is listed as “binding to all three RXRs”.

For CC1(C)CCC(C)(C)c2cc(C3(c4ccc(C(=O)O)cc4)OCCO3)ccc21 [SR 11237], the “binding to RAR receptors” value (RAR receptors) is given as “not to any of the RAR isotypes” and the “binding to RXR receptors” value (RXR receptors) is given as “binding to all three RXRs”.

For C/C(=C\c1ccc(C(=O)O)cc1)c1ccc2c(c1)C(C)(C)CCC2(C)C [TTNPB], the “binding to RAR receptors” value (RAR receptors) is given as “binds RARs”, the “phosphorylation” value [1] is given as “neither RXR nor the 160 kDa protein was phosphorylated” and the “binding to RXR receptors” value (RXR receptors) is given as “not RXRs”.

In the case of “A R T K R S G S V (ARTKRSGSV) [SEQ ID NO.: 98, protein kinase A synthetic substrate]”, the Km (protein kinase A) is given as 10 µM.

In the case of “G R G L S L S R (GRGLSLSR) [SEQ ID NO.: 90, protein kinase A synthetic substrate]”, the Km (protein kinase A) is listed as 240 µM.

For “L H R A S L G (LHRASLG) [SEQ ID NO.: 101, protein kinase A synthetic substrate]”, the Km (protein kinase A) is listed as 415 µM.

For “L R K A S L G (LRKASLG) [SEQ ID NO.: 100, protein kinase A synthetic substrate]”, the Km (protein kinase A) is given as 260 µM.

In the case of “L R R A S L (LRRASL) [SEQ ID NO.: 96, protein kinase A synthetic substrate]”, the Km (protein kinase A) is given as 57 µM.

For “L R R A S V A (LRRASVA) [SEQ ID NO.: 91, protein kinase A synthetic substrate]”, the Km (protein kinase A) is listed as greater than 10 µM.

For “L X^aR A S L G (L[hArg]RASLG) [SEQ ID NO.: 102, protein kinase A synthetic substrate, X = homoarginine]”, the Km (protein kinase A) is listed as 350 µM.

In the case of LRRASLG [SEQ ID NO.: 94, L R R A S L G], the Km (protein kinase A) is given as 16 µM.

For “R R A S F (RRASF) [SEQ ID NO.: 111, protein kinase A synthetic substrate]”, the Km (protein kinase A) is given as 13 µM.

For “R R A S I (RRASI) [SEQ ID NO.: 112, protein kinase A synthetic substrate]”, the Km (protein kinase A) is given as 7 µM.

In the case of “R R A S L G (RRASLG) [SEQ ID NO.: 95, protein kinase A synthetic substrate]”, the Km (protein kinase A) is listed as 26 µM.

In the case of “R R A S V (RRASV) [SEQ ID NO.: 93, protein kinase A synthetic substrate]”, the Km (protein kinase A) is listed as 24 µM.

In the case of “R R A S V A (RRASVA) [SEQ ID NO.: 92, protein kinase A synthetic substrate]”, the Km (protein kinase A) is given as 20 µM.

In the case of “R T G R S G S V (RTGRSGSV) [SEQ ID NO.: 106, protein kinase A synthetic substrate]”, the Km (protein kinase A) is given as 140 µM.

In the case of “R T K R S G S V (RTKRSGSV) [SEQ ID NO.: 99, protein kinase A synthetic substrate]”, the Km (protein kinase A) is given as 21 µM.

For “V L Q A R R G S S I P Q (VLQARRGSSIPQ) [SEQ ID NO.: 104, protein kinase A synthetic substrate]”, the Km (protein kinase A) is given as 11 µM.

In the case of “V L Q A R R G T S I P Q (VLQARRGTSIPQ) [SEQ ID NO.: 109, protein kinase A synthetic substrate]”, the Km (protein kinase A) is listed as 139 µM.

In the case of “V L Q R R R G S S I P Q (VLQRRRGSSIPQ) [SEQ ID NO.: 97, protein kinase A synthetic substrate]”, the Km (protein kinase A) is listed as 4 µM.

For “V L Q R R R G T S I P Q (VLQRRRGTSIPQ) [SEQ ID NO.: 108, protein kinase A synthetic substrate]”, the Km (protein kinase A) is given as 39 µM.

For “V L Q R R R P T S I P Q (VLQRRRPTSIPQ) [SEQ ID NO.: 110, protein kinase A synthetic substrate]”, the Km (protein kinase A) is given as 118 µM.

For “catalytic subunit of murine protein kinase A (expressed from pFC-PKA, Stratagene)”, the “protein kinase A activity in anti-Flag immunoprecipitates (substrate SEQ ID NO: 59), with against without AGN194204” value [2] was “Immunoprecipitates prepared with anti-Flag antibody showed a dramatic increase in the amount of protein kinase A activity”.
